Common to all, as to format: cell-based
For series [1], the system named is RAW 264.7 cells in high glucose medium. The experiment in a line: Osteoclastogenesis and autophagy of RANKL-treated RAW 264.7 cells in high glucose medium. The conditions noted are these: high glucose medium. The protocol: FIG. 20 RAW 264.7 cells were treated with RANKL (100 ng/ml) with or without AdipoRon ([…]) or AdipoAI (5 μM) in low (5 mmol/l) glucose, 20 mmol/l D-mannitol or high (25 mmol/l) glucose medium. qRT-PCR analysis of cathepsin K (A), TRAP (B) and microtubule associated protein 1 light chain 3 (LC3) (C), and mRNA expression were calculated (n≥3). (D) Western blot analysis of LC3A/B protein levels normalized to β-actin. (E) The mean of protein/β-actin ratios normalized to 1.0 (RANKL-AdipoRon-AdipoAI-H group) quantified by densitometry. (F) Autophagosome images obtained with laser confocal microscopy after the RAW 264.7 cells were transfected with a GFP-LC3 plasmid and treated with RANKL and AdipoRon or AdipoAI (scale bar=50 μm). Data are shown as mean±SD. *, P<0.05. **P<0.01. ***P<0.001.
FIG. 21 Autophagy inhibitor reverses AdipoAI-inhibited osteoclastogenesis in high glucose medium. RAW 264.7 cells were treated with RANKL (100 ng/ml) in 2 days and with or without AdipoAI (5 μM) for 24 hours followed by 3-methyladenine (3-MA, 2.5 mM) treatment for another 24 hours in high glucose medium. qRT-PCR analysis of cathepsin K (A), TRAP (B) and LC3 (C) mRNA expression were calculated (n≥3). (D) Western blot analysis of LC3A/B protein levels normalized to β-actin. (E) The mean of protein/β-actin ratios normalized to 1.0 (3-MA-, RANKL-, AdipoAI-group) quantified by densitometry. Data are shown as mean±SD. *, P<0.05. **P<0.01. ***P<0.001.
FIG. 22 AdipoAI-induced autophagy of osteoclasts in high glucose medium via AKT1/mTOR signaling pathway. RAW 264.7 cells were induced with RANKL for 2 days and then treated with or without (5 μM) additional 24 hours after serum starvation for 4 hours. Then, the cells were treated with RANKL, AdipoAI or SC79 (5 μM), an AKT activator, for another 24 hours in high glucose medium. qRT-PCR analysis of mRNA expression of cathepsin K (A), TRAP (B) and LC3 (C) were calculated (n≥3). (D) Representative images show the protein expression levels of AKT, p-AKT, AKT1, p-AKT1, mTOR, p-mTOR, and LC3A/B in osteoclasts. Quantitative analysis of bands is shown in (E-K) (n≥3). Data are shown as mean±SD. *, P<0.05. **P<0.01. ***P<0.001. R: RANKL. A, AI: AdipoAI. SC5: SC79 (5 μM).
RAW 264.7 cells (ATCC, Manassas, VA, USA) were cultured and passaged in DMEM supplemented with 10% (v/v) FBS (Invitrogen, Grand Island, NY, USA) and 1% Penicillin-Streptomycin (Gibco, Gaithersburg, MD, USA). For the induction of osteoclastogenesis, RAW 264.7 cells were cultured 24 in α-MEM supplemented with 10% FBS and 1% Penicillin-Streptomycin in the presence of 100 ng/ml RANKL (Peprotech, Rocky Hill, NJ, USA) for 2 days, and subsequently treated or not with AdipoRon or AdipoAI for another 2 days changing cell culture medium every 2 days. After a total of […] of culture, morphologic examination was performed, as was mRNA and protein expression. To simulate high glucose environment in vitro, α-MEM was supplemented with D-glucose to 25 mmol/l (high glucose) or 5 mmol/l (physiological glucose). 20 mmol/l D-mannitol served as an osmotic control.
Total RNA was isolated from cell cultures and gingival soft tissues using TriZol reagent (Life Technologies, Carlsbad, CA, USA) according to the manufacturer's instructions^24. Reverse transcription was performed using the PrimeScript RT Master Mix (Takara Bio, Otsu, Japan) and real-time-qPCR analyses were performed using SYBR-Green Real-Time PCR Master Mix (Takara Bio, Otsu, Japan) as described earlier^27.
Total cellular extracts were prepared using RIPA Lysis and Extraction Buffer containing three Protease Inhibitors (Santa Cruz, Dallas, TX, USA). Western blot analyses were performed as previously described 24. Antibodies for β-actin (1:2000) and GAPDH (1:5000), LC3A/B (1:1000), AKT1 (1:1000), p-AKT1 (1:1000), AKT (1:1000), p-AKT (1:1000), mTOR (1:1000), p-mTOR (1:1000) were purchased from Abcam and Cell Signaling Technology, respectively. SC79, an AKT activator was purchased from Sigma Aldrich. […]

In series [2] the test system is Raw264.7 cells. The experiment in a line: CCK-8 cytotoxicity assay, 24 hours. The conditions noted are these: at 40 μM or lower concentrations. As for the experimental part:
(§1) FIG. 1 Characterization of anti-inflammatory properties of APR-like compounds. (a) Raw264.7 cells were pretreated with APR (20 μM) or new compounds 1 to 10 (5 μM) for 24 h followed by incubation with LPS (100 ng/mL) for an additional 6 h. IL-6 and IL-1β mRNA expression levels were evaluated by qPCR and normalized with GAPDH mRNA level. (b) Raw264.7 cells were pretreated with different doses of AdipoAI for 24 h followed by incubation with LPS (100 ng/mL) for additional 6 h to evaluate dose-dependency of AdipoAI in inhibiting IL-6 and IL-1β mRNA expression levels by qRT-PCR and normalized with GAPDH mRNA level. (c) Evaluation of cytotoxicity of APR, AdipoAI and compound 5 by CCK8 assay in Raw264.7 cells treated for 24 hours. (d) BMMs were pretreated with APR (20 μM), AdipoAI (5 μM) or compound 5 (5 μM) for 24 h followed by incubation with LPS (100 ng/ml) for additional 6 h for the measurement of IL-6 and IL-1β mRNA expression levels by qRT-PCR and normalized with GAPDH mRNA level. Data were expressed as the mean±SEM at five biological independent experiments. One-way ANOVA test for multiple-group comparisons, *P<0.05, significant differences between each indicated group.
Raw264.7 cells were seeded at 2×10^3 cells/well in 96-well plates for 16 hours and then serum-starved for 6 hours. Cells were maintained in DMEM in the presence of different concentrations of APR (AdipoGen Life Sciences, San Diego, CA, USA) and compounds for 24 hours. […] The detailed group assignment is shown in the individual figure legends.

Series [3] concerns LPS-stimulated RAW 264.7 macrophages. Put plainly: qPCR of cytokine mRNA in LPS-stimulated RAW 264.7 macrophages. The conditions noted are these: compounds at 5 μM vs APR at 20 μM, 24 h pretreatment, then LPS 100 ng/mL 6 h. As for the experimental part:
as §1
RAW 264.7 macrophage cell line was purchased from ATCC (Manassas, VA, USA) and maintained in DMEM (Gibco, Life Technologies, Carlsbad, CA, USA) supplemented with 10% (v.v-1) FBS (Gibco, Life Technologies) and 1% (v.v-1) penicillin/streptomycin (Gibco, Life Technologies). The cells were routinely cultured in an incubator at 37° C. in a humidified atmosphere of 5% CO2.
Total RNA of cells was extracted using Quick-RNA Miniprep Kit (ZYMO Research, Irvine, CA, USA) and total RNA from mouse tissues was prepared with TriZol reagent (Life Technologies) according to the manufacturer's instructions followed by qRT-PCR assays as described previously (L. Zhang et al., 2014). 1 μg of total RNA was used for reverse transcription using the M-MLV Reverse Transcriptase (Thermo Scientific, Waltham, MA, USA) according to the manufacturer's protocol using PowerUp SYBR Green Master Mix (Thermo Scientific) on a Bio-Rad iQ5 thermal cycler (Bio-Rad Laboratories, Hercules, CA, USA). Differences in expression were evaluated by the comparative cycle threshold method using GAPDH or β-actin as a control. The primer sequences used for the qRT-PCR experiments are listed in supplemental Table 1.
Macrophages were seeded at a density of 5×10^5 cells/well in 12-well plates. After overnight incubation, the cells were transfected for 24 h with siRNAs targeting specific genes or scrambled control siRNAs using HiPerFect Transfection Reagent (Qiagen, Hilden, Germany) according to the manufacturer's guidelines. Gene silencing efficiency was monitored by qPCR or Western blot analysis. The siRNA duplexes used in this study were chemically synthesized by Thermo Scientific.
In general terms: In qPCR the cycle at which signal appears reflects the starting amount.

Each structure is given as a SMILES string.

For `CCOC(=O)C1=C(N)Oc2ccc(Cl)cc2C1C(C#N)C(=O)OCC` (stereo not drawn) [SC79, reference compound], in series [1] (SC79 5 μM), the “LC3II, AKT expression and AKT, AKT1, mTOR phosphorylation changes induced by AdipoAI” value was “reverses the promoted expression of LC3II”; the “LC3 mRNA and osteoclastogenic marker mRNA under AdipoAI” value was “reverses the upregulated expression of LC3 mRNA and downregulated expression of osteoclastogenic markers”.
For the molecule `Cn1cnc(N)c2ncnc1-2` [3-methyladenine, reference compound], in series [1] (3-MA 2.5 mM 24 hours), the “LC3 mRNA and LC3II protein induced by AdipoAI” value is “decreased the mRNA expression of LC3 and protein expression of LC3II induced by AdipoAI”. Moreover, the “AdipoAI-inhibited mRNA expression of Cathepsin K and TRAP” value in series [1] (3-MA 2.5 mM) is “reversed the AdipoAI-inhibited mRNA expression of osteoclastogenesis markers Cathepsin K and TRAP”.
For the molecule `CC(c1ccccc1)N1CCC(NC(=O)COc2ccc(C(=O)c3ccc(Cl)cc3)cc2)CC1` (stereo not drawn) [Compound 5], the “cytotoxic effects (CCK-8)” value in series [2] was “neither of the 3 small molecules mediated significant cytotoxic effects”. Also, in series [3], the “inhibition of IL-6 and IL1-β mRNA expression” value was “stronger inhibitory effects than APR”.

For the origin of these results see patent US12391646B2, “Using adiponectin receptor agonists to treat inflammation and bone diseases in diabetes” (Trustees of Tufts College, priority 2020, dated 2025).
